Results taken from patent US10167262B2, “Herbicidal substituted 3-arylpyrazoles” (FMC CORPORATION, priority 2014, dated 2019).

Legend:
Type in all cases: in vivo
[1] = system: sandbur (southern sandbur, Cenchrus echinatus); test: Test E pre-/postemergence greenhouse test, plant response rating 0-100; settings: scale 0 to 100; for Sandbur plant response rating: Preemergence
Outline: (§1)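 Sow seeds in silt loam and treat preemergence; at the same time, spray postemergence on 1- to 4-leaf plants in peat/vermiculite mix. Use a non-phytotoxic solvent plus surfactant as carrier. Hold 14–21 days in greenhouse, then score visually 0–100 against controls.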

[2] = system: hairy beggarticks (Bidens pilosa); test: as above; settings: scale 0 to 100; for Beggarticks plant response rating: Preemergence
Outline: as §1

[3] = system: Brazilian crabgrass (Digitaria horizontalis); test: as above; settings: Digitaria horizontalis, post-emergence, Postemergence, scale 0 to 100, read-out: Plant response rating, Crabgrass, Brazil
Outline: as §1

[4] = system: wild poinsettia (Euphorbia heterophylla); test: as above; settings: scale 0 to 100; for Poinsettia, Wild plant response rating: Preemergence
Outline: as §1

[5] = system: fall panicum (Panicum dichotomiflorum); test: as above; settings: scale 0 to 100; for Panicum, Fall plant response rating: Preemergence
Outline: as §1

[6] = system: palmer pigweed (Amaranthus palmeri); test: as above; settings: scale 0 to 100; for Pigweed, Palmer plant response rating: Preemergence
Outline: as §1

[7] = system: arrowleaf sida (Sida rhombifolia); test: as above; settings: for Arrowleaf Sida plant response rating: Preemergence
Outline: as §1

[8] = system: waterhemp (common waterhemp, Amaranthus rudis); test: as above; settings: scale 0 to 100; for Waterhemp plant response rating: Preemergence
Outline: as §1

[9] = system: dayflower (Virginia (VA) dayflower, Commelina virginica); test: as above; settings: scale 0 to 100; for Dayflower, VA plant response rating: Preemergence
Outline: as §1

[10] = system: barnyardgrass (Echinochloa crus-galli); test: as above; settings: scale 0 to 100; for Barnyardgrass plant response rating: Preemergence
Outline: as §1

rice (Oryza sativa) = test: Test B flooded paddy test, plant response rating 0-100; settings: Flood, 250 g ai/ha; scale 0 to 100 (0 no effect, 100 complete control); 13 to 15 days
Outline: (§2)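 Test compounds are applied straight into paddy water held 3 cm above the soil surface, with that flood maintained for the whole test. After 13 to 15 days in the greenhouse, each species is scored visually relative to controls.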

[11] = system: sedge, umbrella (small-flower umbrella sedge, Cyperus difformis); test: as above; settings: Flood, 250 g ai/ha; scale 0 to 100 (0 no effect, 100 complete control); 13 to 15 days
Outline: as §2

[12] = system: ducksalad (Heteranthera limosa); test: as above; settings: Flood, 250 g ai/ha; scale 0 to 100 (0 no effect, 100 complete control); 13 to 15 days
Outline: as §2

[13] = system: barnyardgrass (Echinochloa crus-galli); test: as above; settings: Flood, 250 g ai/ha; scale 0 to 100 (0 no effect, 100 complete control); 13 to 15 days
Outline: as §2

COCC(=O)n1cc(C(=O)c2ccccc2)c(-c2cc(Cl)cc(Cl)c2)n1 [Compound 16, 1-[4-benzoyl-3-(3,5-dichlorophenyl)-1H-pyrazol-1-yl]-2-methoxyethanone]
30%: pest or weed control at 250 g/ha ([5]; Panicum dichotomiflorum, post-emergence, Postemergence, 250 g ai/ha)
35: Arrowleaf Sida plant response rating ([7]; 62 g ai/ha, scale 0 to 100)
70%: pest or weed control at 31 g/ha ([6]; Amaranthus palmeri, post-emergence, Postemergence, 31 g ai/ha) | pest or weed control at 62 g/ha ([6]; Amaranthus palmeri, post-emergence, Postemergence, 62 g ai/ha)
98%: pest or weed control at 125 g/ha ([2]; Bidens pilosa, post-emergence, Postemergence, 125 g ai/ha) | pest or weed control at 250 g/ha ([2]; Bidens pilosa, post-emergence, Postemergence, 250 g ai/ha) | pest or weed control at 500 g/ha ([2]; Bidens pilosa, post-emergence, Postemergence, 500 g ai/ha) | pest or weed control at 62 g/ha ([7]; Sida rhombifolia, post-emergence, Postemergence, 62 g ai/ha, scale 0 to 100) | pest or weed control at 125 g/ha ([7]; Sida rhombifolia, post-emergence, Postemergence, 125 g ai/ha, scale 0 to 100) | pest or weed control at 250 g/ha ([7]; Sida rhombifolia, post-emergence, Postemergence, 250 g ai/ha, scale 0 to 100) | pest or weed control at 62 g/ha ([8]; Amaranthus tuberculatus, post-emergence, Postemergence, 62 g ai/ha) | pest or weed control at 125 g/ha ([8]; Amaranthus tuberculatus, post-emergence, Postemergence, 125 g ai/ha) | pest or weed control at 250 g/ha ([8]; Amaranthus tuberculatus, post-emergence, Postemergence, 250 g ai/ha)
90: Arrowleaf Sida plant response rating ([7]; 125 g ai/ha, scale 0 to 100)
70: Waterhemp plant response rating ([8]; 125 g ai/ha)
65%: pest or weed control at 500 g/ha ([5]; Panicum dichotomiflorum, post-emergence, Postemergence, 500 g ai/ha)
95%: pest or weed control at 31 g/ha ([2]; Bidens pilosa, post-emergence, Postemergence, 31 g ai/ha) | pest or weed control at 31 g/ha ([7]; Sida rhombifolia, post-emergence, Postemergence, 31 g ai/ha, scale 0 to 100) | pest or weed control at 31 g/ha ([8]; Amaranthus tuberculatus, post-emergence, Postemergence, 31 g ai/ha)
0%: pest or weed control at 31 g/ha ([1]; Cenchrus echinatus, post-emergence, Postemergence, 31 g ai/ha) | pest or weed control at 62 g/ha ([1]; Cenchrus echinatus, post-emergence, Postemergence, 62 g ai/ha) | pest or weed control at 125 g/ha ([1]; Cenchrus echinatus, post-emergence, Postemergence, 125 g ai/ha) | pest or weed control at 250 g/ha ([1]; Cenchrus echinatus, post-emergence, Postemergence, 250 g ai/ha) | pest or weed control at 500 g/ha ([1]; Cenchrus echinatus, post-emergence, Postemergence, 500 g ai/ha) | pest or weed control at 31 g/ha ([3]; 31 g ai/ha) | pest or weed control at 62 g/ha ([3]; 62 g ai/ha) | pest or weed control at 125 g/ha ([3]; 125 g ai/ha) | pest or weed control at 250 g/ha ([3]; 250 g ai/ha) | pest or weed control at 500 g/ha ([3]; 500 g ai/ha) | pest or weed control at 31 g/ha ([4]; Euphorbia heterophylla, post-emergence, Postemergence, 31 g ai/ha, read-out: Plant response rating, Poinsettia, Wild) | pest or weed control at 62 g/ha ([4]; Euphorbia heterophylla, post-emergence, Postemergence, 62 g ai/ha, read-out: Plant response rating, Poinsettia, Wild) | pest or weed control at 125 g/ha ([4]; Euphorbia heterophylla, post-emergence, Postemergence, 125 g ai/ha, read-out: Plant response rating, Poinsettia, Wild) | pest or weed control at 250 g/ha ([4]; Euphorbia heterophylla, post-emergence, Postemergence, 250 g ai/ha, read-out: Plant response rating, Poinsettia, Wild) | pest or weed control at 500 g/ha ([4]; Euphorbia heterophylla, post-emergence, Postemergence, 500 g ai/ha, read-out: Plant response rating, Poinsettia, Wild) | pest or weed control at 31 g/ha ([5]; Panicum dichotomiflorum, post-emergence, Postemergence, 31 g ai/ha) | pest or weed control at 62 g/ha ([5]; Panicum dichotomiflorum, post-emergence, Postemergence, 62 g ai/ha) | pest or weed control at 31 g/ha ([9]; Commelina virginica, post-emergence, Postemergence, 31 g ai/ha) | pest or weed control at 62 g/ha ([9]; Commelina virginica, post-emergence, Postemergence, 62 g ai/ha) | pest or weed control at 125 g/ha ([9]; Commelina virginica, post-emergence, Postemergence, 125 g ai/ha) | pest or weed control at 250 g/ha ([9]; Commelina virginica, post-emergence, Postemergence, 250 g ai/ha) | pest or weed control at 500 g/ha ([9]; Commelina virginica, post-emergence, Postemergence, 500 g ai/ha) | pest or weed control at 31 g/ha ([10]; Echinochloa crus-galli, post-emergence, Postemergence, 31 g ai/ha) | pest or weed control at 62 g/ha ([10]; Echinochloa crus-galli, post-emergence, Postemergence, 62 g ai/ha) | pest or weed control at 125 g/ha ([10]; Echinochloa crus-galli, post-emergence, Postemergence, 125 g ai/ha) | pest or weed control at 250 g/ha ([10]; Echinochloa crus-galli, post-emergence, Postemergence, 250 g ai/ha) | pest or weed control at 500 g/ha ([10]; Echinochloa crus-galli, post-emergence, Postemergence, 500 g ai/ha)
25: Beggarticks plant response rating ([2]; 125 g ai/ha) | Arrowleaf Sida plant response rating ([7]; 31 g ai/ha, scale 0 to 100)
90%: pest or weed control at 125 g/ha ([6]; Amaranthus palmeri, post-emergence, Postemergence, 125 g ai/ha) | pest or weed control at 250 g/ha ([6]; Amaranthus palmeri, post-emergence, Postemergence, 250 g ai/ha)
50: Beggarticks plant response rating ([2]; 250 g ai/ha)
100: Arrowleaf Sida plant response rating ([7]; 500 g ai/ha, scale 0 to 100) | Waterhemp plant response rating ([8]; 250 g ai/ha) | Waterhemp plant response rating ([8]; 500 g ai/ha)
100%: pest or weed control at 62 g/ha ([2]; Bidens pilosa, post-emergence, Postemergence, 62 g ai/ha) | pest or weed control at 500 g/ha ([6]; Amaranthus palmeri, post-emergence, Postemergence, 500 g ai/ha) | pest or weed control at 500 g/ha ([7]; Sida rhombifolia, post-emergence, Postemergence, 500 g ai/ha, scale 0 to 100 (0 no effect, 100 complete control)) | pest or weed control at 500 g/ha ([8]; Amaranthus tuberculatus, post-emergence, Postemergence, 500 g ai/ha)
30: Waterhemp plant response rating ([8]; 62 g ai/ha)
0: Sandbur plant response rating ([1]; 31 g ai/ha) | Sandbur plant response rating ([1]; 62 g ai/ha) | Sandbur plant response rating ([1]; 125 g ai/ha) | Sandbur plant response rating ([1]; 250 g ai/ha) | Sandbur plant response rating ([1]; 500 g ai/ha) | Beggarticks plant response rating ([2]; 31 g ai/ha) | Beggarticks plant response rating ([2]; 62 g ai/ha) | Poinsettia, Wild plant response rating ([4]; 31 g ai/ha) | Poinsettia, Wild plant response rating ([4]; 62 g ai/ha) | Poinsettia, Wild plant response rating ([4]; 125 g ai/ha) | Poinsettia, Wild plant response rating ([4]; 250 g ai/ha) | Poinsettia, Wild plant response rating ([4]; 500 g ai/ha) | Panicum, Fall plant response rating ([5]; 31 g ai/ha) | Panicum, Fall plant response rating ([5]; 62 g ai/ha) | Panicum, Fall plant response rating ([5]; 125 g ai/ha) | Panicum, Fall plant response rating ([5]; 250 g ai/ha) | Panicum, Fall plant response rating ([5]; 500 g ai/ha) | Pigweed, Palmer plant response rating ([6]; 31 g ai/ha) | Pigweed, Palmer plant response rating ([6]; 62 g ai/ha) | Pigweed, Palmer plant response rating ([6]; 125 g ai/ha) | Pigweed, Palmer plant response rating ([6]; 250 g ai/ha) | Pigweed, Palmer plant response rating ([6]; 500 g ai/ha) | Waterhemp plant response rating ([8]; 31 g ai/ha) | Dayflower, VA plant response rating ([9]; 31 g ai/ha) | Dayflower, VA plant response rating ([9]; 62 g ai/ha) | Dayflower, VA plant response rating ([9]; 125 g ai/ha) | Dayflower, VA plant response rating ([9]; 250 g ai/ha) | Dayflower, VA plant response rating ([9]; 500 g ai/ha) | Barnyardgrass plant response rating ([10]; 31 g ai/ha) | Barnyardgrass plant response rating ([10]; 62 g ai/ha) | Barnyardgrass plant response rating ([10]; 125 g ai/ha) | Barnyardgrass plant response rating ([10]; 250 g ai/ha) | Barnyardgrass plant response rating ([10]; 500 g ai/ha) | Plant response rating, Rice (rice (Oryza sativa)) | Plant response rating, Sedge, Umbrella [11] | Plant response rating, Ducksalad [12] | Plant response rating, Barnyardgrass [13]
60%: pest or weed control at 125 g/ha ([5]; Panicum dichotomiflorum, post-emergence, Postemergence, 125 g ai/ha)
65: Beggarticks plant response rating ([2]; 500 g ai/ha)
95: Arrowleaf Sida plant response rating ([7]; 250 g ai/ha, scale 0 to 100)
